Data: US11690810B2, “Combination treatment of bacterial infection” (The Chinese University of Hong Kong, priority 2018, dated 2023)
In brackets after ≈: the same amount, converted by molar mass.

Legend:
Solubility = conditions: MIC test medium
[1] = system: S. aureus SA-1199B (NorA efflux pump overexpressed); experiment: MIC and checkerboard (FIC) assay; conditions: Staphylococcus aureus
[2] = system: S. aureus ATCC25923 (methicillin sensitive); experiment: MIC and checkerboard (FIC) assay; conditions: Staphylococcus aureus
[3] = system: S. aureus SA-APH2″-AAC6′ (APH2), resistant to gentamicin; experiment: MIC and checkerboard (FIC) assay; conditions: Staphylococcus aureus
MRSA SA-ST239 = experiment: MIC and checkerboard (FIC) assay
[4] = system: S. aureus SA-APH3′ (APH3), resistant to kanamycin; experiment: MIC and checkerboard (FIC) assay; conditions: Staphylococcus aureus
[5] = system: panel of laboratory MRSA strains; experiment: MIC and combination tests, panel of laboratory strains; conditions: tanshinone highest tested concentration 128 μg/ml
[6] = system: S. aureus SA-RN4220-pUL5054 (RN4220); experiment: MIC and checkerboard (FIC) assay; conditions: Staphylococcus aureus
[7] = system: S. aureus SA-ANT4′ (ANT4), resistant to fusidic acid; experiment: MIC and checkerboard (FIC) assay; conditions: Staphylococcus aureus
[8] = system: methicillin sensitive Staphylococcus aureus ATCC25923; experiment: Mouse pneumonia model, ATCC25923 (neutropenic mice); assay type: in vivo, Balb/c mice
HA MRSA W233 = experiment: MIC and checkerboard (FIC) assay
CA MRSA W48 = experiment: MIC and checkerboard (FIC) assay
CA MRSA W46 = experiment: MIC and checkerboard (FIC) assay
physchem = conditions: saline or isotonic
clinical MRSA ST239 = experiment: Mouse pneumonia model, ST239 (neutropenic mice); assay type: in vivo, Balb/c mice; conditions: mouse, in vivo
CA-MRSA strain ST30 = experiment: MIC and checkerboard (FIC) assay; assay type: cell-based, Staphylococcus aureus
HA MRSA W238 = experiment: MIC and checkerboard (FIC) assay
[9] = system: clinical community-associated (CA) and hospital-associated (HA) MRSA strains; experiment: MIC and combination tests, panel of clinical strains
[10] = system: Panton-Valentine leukocidin positive CA-MRSA strain ST30; assay type: in vivo, Balb/c mice; conditions: mouse, in vivo
CA MRSA W45 = experiment: MIC and checkerboard (FIC) assay
CA MRSA W47 = experiment: MIC and checkerboard (FIC) assay
HA MRSA W231 = experiment: MIC and checkerboard (FIC) assay
HA MRSA W232 = experiment: MIC and checkerboard (FIC) assay
CA MRSA W44 = experiment: MIC and checkerboard (FIC) assay
HA MRSA W239 = experiment: MIC and checkerboard (FIC) assay
[11] = Staphylococcus aureus, MRSA, read-out: MIC alone

Q: Which solubility (Solubility) does the source give for `Cc1coc2c1C(=O)C(=O)c1c-2ccc2c(C)cccc12` [Tanshinone, tanshinone] here?
A: poor

Q: What about the MIC90 [1] of the same compound?
A: > 128 µg/mL

Q: And the MIC99 ([1]; read-out: MIC 99.9)?
A: > 128 µg/mL

Q: What about the MIC90 ([2]; ATCC25923) of the same compound?
A: > 128 µg/mL

Q: What about the MIC99 ([2]; ATCC25923, read-out: MIC 99.9) of the same compound?
A: > 128 µg/mL

Q: And the MIC90 [3]?
A: > 128 µg/mL

Q: And the MIC99 ([3]; read-out: MIC 99.9)?
A: > 128 µg/mL

Q: And the MIC90 (MRSA SA-ST239; Staphylococcus aureus, MRSA)?
A: > 128 µg/mL

Q: What about the MIC99 (MRSA SA-ST239; Staphylococcus aureus, MRSA, read-out: MIC 99.9) of the same compound?
A: > 128 µg/mL

Q: And the MIC90 [4]?
A: > 128 µg/mL

Q: What about the MIC99 ([4]; read-out: MIC 99.9) of the same compound?
A: > 128 µg/mL

Q: And the “activity against the tested MRSA strains when used alone” value [5]?
A: ineffective

Q: What about the MIC90 [6] of the same compound?
A: > 128 µg/mL

Q: And the MIC99 ([6]; read-out: MIC 99.9)?
A: > 128 µg/mL

Q: And the MIC90 [7]?
A: > 128 µg/mL

Q: What about the MIC99 ([7]; read-out: MIC 99.9) of the same compound?
A: > 128 µg/mL

Q: Which results are given for `CN[C@H](CC(C)C)C(=O)N[C@H]1C(=O)N[C@@H](CC(N)=O)C(=O)N[C@H]2C(=O)N[C@H]3C(=O)N[C@H](C(=O)N[C@H](C(=O)O)c4cc(O)cc(O)c4-c4cc3ccc4O)[C@H](O)c3ccc(c(Cl)c3)Oc3cc2cc(c3O[C@@H]2O[C@H](CO)[C@@H](O)[C@H](O)[C@H]2O[C@H]2C[C@](C)(N)[C@H](O)[C@H](C)O2)Oc2ccc(cc2Cl)[C@H]1O` [Vancomycin, vancomycin, reference compound]?
A: lung tissue profiles (histology) vs control [8]: fewer lesions; mean bacteria counts (left lung) ([8]; vancomycin 60 mg/kg, ECG 120 mg/kg, kuraridin 120 mg/kg, 48 h, control 8.909±0.101): 6.064±0.425 log CFU; MIC (HA MRSA W233; [11]): 1 µg/mL; FIC (HA MRSA W233; W233, ECG+Kur+Van): 0.5; MIC combine (HA MRSA W233; W233, ECG+Kur+Van): 0.5 µg/mL; MIC (CA MRSA W48; [11]): 1 µg/mL; FIC (CA MRSA W48; W48, ECG+Kur+Van): 0.5; MIC combine (CA MRSA W48; W48, ECG+Kur+Van): 0.5 µg/mL; MIC (CA MRSA W46; [11]): 1 µg/mL; FIC (CA MRSA W46; W46, ECG+Kur+Van): 0.5; MIC combine (CA MRSA W46; W46, ECG+Kur+Van): 0.5 µg/mL; solubility (physchem): 20 mg/mL (≈ 13.8 mM); mean bacteria counts (left lung) (clinical MRSA ST239): 4.73±0.26 log CFU; FIC (MRSA SA-ST239; ST239, ECG+Kur+Van): 0.5; MIC combine (MRSA SA-ST239; ST239, ECG+Kur+Van): 0.5 µg/mL; MIC (MRSA SA-ST239; [11]): 1 µg/mL; FIC (CA-MRSA strain ST30; ST30, ECG+Kur+Van): 0.5; MIC combine (CA-MRSA strain ST30; ST30, ECG+Kur+Van): 0.5 µg/mL; MIC (CA-MRSA strain ST30; [11]): 1 µg/mL; MIC (HA MRSA W238; [11]): 1 µg/mL; FIC (HA MRSA W238; W238, ECG+Kur+Van): 0.5; MIC combine (HA MRSA W238; W238, ECG+Kur+Van): 0.5 µg/mL; MIC ([9]; Staphylococcus aureus, MRSA, read-out: MIC of vancomycin alone): 1 µg/mL; MIC of vancomycin with ECG and kuraridin combined treatment ([9]; panel of clinical strains (Table 5)): 0.5 µg/mL; expression levels of TNFα, IL-1β, and IL-6 from lung homogenates [10]: significantly lowered; lung tissue profiles (histology) vs control [10]: fewer lesions; survival rate [10]: 100%; MIC (CA MRSA W45; [11]): 1 µg/mL; FIC (CA MRSA W45; W45, ECG+Kur+Van): 0.5; MIC combine (CA MRSA W45; W45, ECG+Kur+Van): 0.5 µg/mL; MIC (CA MRSA W47; [11]): 1 µg/mL; FIC (CA MRSA W47; W47, ECG+Kur+Van): 0.25; MIC combine (CA MRSA W47; W47, ECG+Kur+Van): 0.25 µg/mL; MIC (HA MRSA W231; [11]): 1 µg/mL; MIC combine (HA MRSA W231; W231, ECG+Kur+Van): 0.5 µg/mL; MIC (HA MRSA W232; [11]): 1 µg/mL; FIC (HA MRSA W232; W232, ECG+Kur+Van): 0.5; MIC combine (HA MRSA W232; W232, ECG+Kur+Van): 0.5 µg/mL; MIC (CA MRSA W44; [11]): 1 µg/mL; FIC (CA MRSA W44; W44, ECG+Kur+Van): 0.5; MIC combine (CA MRSA W44; W44, ECG+Kur+Van): 0.5 µg/mL; MIC (HA MRSA W239; [11]): 1 µg/mL; FIC (HA MRSA W239; W239, ECG+Kur+Van): 0.5; MIC combine (HA MRSA W239; W239, ECG+Kur+Van): 0.5 µg/mL
